The assay has as its system L1210 leukemia ip in BDF1 mice, survival T/C. Kind of assay: NCI In Vivo Anticancer Drug Screen. Data for tumor model L1210 Leukemia (intraperitoneal) in B6D2F1 (BDF1) mice. The following applies: endpoint: mean survival time, higher = longer survival. In a few lines:
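Tumor was transplanted into mice, which were then dosed with test compound or vehicle alone. Survival was recorded for each group, and the treated figure was expressed relative to the control figure.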

Setting [1] is: dose: 100.0 mg/kg/injection, schedule: Q01DX001 (ip), vehicle: carboxymethylcellulose (CMC).
Where [2] appears, read: dose: 100.0 mg/kg/injection, schedule: Q01DX001 (ip), vehicle: saline.
Where [3] appears, read: dose: 200.0 mg/kg/injection, schedule: Q01DX001 (ip), vehicle: carboxymethylcellulose (CMC).
Setting [4] is: dose: 200.0 mg/kg/injection, schedule: Q01DX001 (ip), vehicle: saline.
Setting [5] is: dose: 100.0 mg/kg/injection, schedule: Q01DX009 (ip), vehicle: saline with Tween-80.
Where [6] appears, read: dose: 400.0 mg/kg/injection, schedule: Q01DX001 (ip), vehicle: carboxymethylcellulose (CMC).
The mark [7] stands for this setting: dose: 100.0 mg/kg/injection, schedule: Q04DX003 (ip), vehicle: saline.

“And” between values parts separate entries of the source, which are not always exact repeats. Equal values may be shown once. Inconclusive results and toxic doses are left out.

For `NC(Cc1ccc(OC2CCCC2)c(N(CCCl)CCCl)c1)C(=O)O` (stereo not drawn), the T/C was 122 % of control (dose: 0.6 mg/kg/injection, schedule: Q01DX009 (ip), vehicle: carboxymethylcellulose (CMC)); 102 % of control (dose: 3.8 mg/kg/injection, schedule: Q01DX009 (ip), vehicle: saline); 107 % of control (dose: 4.4 mg/kg/injection, schedule: Q01DX001 (ip), vehicle: carboxymethylcellulose (CMC)); 103 % of control (dose: 5.7 mg/kg/injection, schedule: Q01DX009 (ip), vehicle: saline); 111 % of control (dose: 6.6 mg/kg/injection, schedule: Q01DX001 (ip), vehicle: carboxymethylcellulose (CMC)); 111 % of control (dose: 8.5 mg/kg/injection, schedule: Q01DX001 (ip), vehicle: carboxymethylcellulose (CMC)). In addition, the T/C is 155 % of control (dose: 8.5 mg/kg/injection, schedule: Q01DX009 (ip), vehicle: carboxymethylcellulose (CMC)); 110 % of control (dose: 8.5 mg/kg/injection, schedule: Q01DX009 (ip), vehicle: saline); 115 % of control (dose: 8.8 mg/kg/injection, schedule: Q01DX009 (ip), vehicle: carboxymethylcellulose (CMC)); 120 % of control (dose: 10.0 mg/kg/injection, schedule: Q01DX001 (ip), vehicle: carboxymethylcellulose (CMC)); 114 % of control (dose: 13.0 mg/kg/injection, schedule: Q01DX001 (ip), vehicle: carboxymethylcellulose (CMC)); 152 % of control (dose: 13.0 mg/kg/injection, schedule: Q01DX009 (ip), vehicle: carboxymethylcellulose (CMC)). Besides, the T/C was 88 % of control (dose: 13.3 mg/kg/injection, schedule: Q01DX009 (ip), vehicle: carboxymethylcellulose (CMC)); 215 % of control (dose: 20.0 mg/kg/injection, schedule: Q01DX009 (ip), vehicle: carboxymethylcellulose (CMC)); 119 % of control (dose: 20.0 mg/kg/injection, schedule: Q01DX009 (ip), vehicle: saline); 202 % of control (dose: 30.0 mg/kg/injection, schedule: Q01DX001 (ip), vehicle: carboxymethylcellulose (CMC)); 98 % of control (dose: 30.0 mg/kg/injection, schedule: Q01DX009 (ip), vehicle: saline).
As for `O=CNc1c(Cl)c(Cl)c2c(c1Cl)Cc1cc(Cl)ccc1-2`, the T/C was 94 % of control (dose: 50.0 mg/kg/injection, schedule: Q01DX001 (ip), vehicle: carboxymethylcellulose (CMC)); 97 % of control (dose: 50.0 mg/kg/injection, schedule: Q04DX003 (ip), vehicle: acetone); 108 % of control (dose: 75.0 mg/kg/injection, schedule: Q01DX009 (ip), vehicle: saline with Tween-80); 91 % of control under setting [1]; 91 % of control under setting [2]; 105 % of control (dose: 100.0 mg/kg/injection, schedule: Q04DX003 (ip), vehicle: acetone). Further, the T/C (dose: 150.0 mg/kg/injection, schedule: Q01DX009 (ip), vehicle: saline with Tween-80) is 109 % of control; the T/C under setting [3] was 102 % of control; the T/C under setting [4] was 91 % of control; the T/C (dose: 200.0 mg/kg/injection, schedule: Q04DX003 (ip), vehicle: acetone) was 94 % of control.
Take `CC1CN=C(c2ccc(NC(=O)NCCCCCCCCCCNC(=O)Nc3ccc(C4=NCC(C)N4)cc3)cc2)N1` (stereo not drawn): the T/C is 96 % of control (dose: 5.0 mg/kg/injection, schedule: Q01DX015 (ip), vehicle: water); 102 % of control (dose: 10.0 mg/kg/injection, schedule: Q01DX015 (ip), vehicle: water); 103 % of control (dose: 20.0 mg/kg/injection, schedule: Q01DX015 (ip), vehicle: water).
In the case of `COc1ccc(C(=O)CC(c2ccc3c(c2)OCO3)c2c(O)c3ccccc3oc2=O)cc1OC` (stereo not drawn), the T/C is 97 % of control (dose: 50.0 mg/kg/injection, schedule: Q01DX009 (ip), vehicle: saline with Tween-80); 96 % of control under setting [5]; 94 % of control (dose: 100.0 mg/kg/injection, schedule: Q04DX003 (ip), vehicle: saline with Tween-80); 92 % of control (dose: 200.0 mg/kg/injection, schedule: Q01DX009 (ip), vehicle: saline with Tween-80); 102 % of control (dose: 200.0 mg/kg/injection, schedule: Q04DX003 (ip), vehicle: saline with Tween-80); 87 % of control (dose: 400.0 mg/kg/injection, schedule: Q01DX009 (ip), vehicle: saline with Tween-80). Further, where the note is “dose: 400.0 mg/kg/injection, schedule: Q04DX003 (ip), vehicle: saline with Tween-80”, the T/C was 89 % of control.
For the molecule `Cc1coc2c1[C@@H](O)[C@]1(C)[C@@H](C)CC[C@H](O)[C@]1(O)C2`, the T/C runs as follows: under setting [2], 97 % of control; under setting [4], 95 % of control.
As for `C=CCOC(=O)C(=O)OCC=C`, the T/C under setting [5] is 95 % of control.
For `c1cc[c]([Sn]([c]2ccccc2)([CH]2CCCCC2)[CH]2CCCCC2)cc1`, the T/C is 96 % of control (dose: 75.0 mg/kg/injection, schedule: Q04DX002 (ip), vehicle: gum acacia); 101 % of control (dose: 150.0 mg/kg/injection, schedule: Q04DX002 (ip), vehicle: gum acacia); 96 % of control (dose: 300.0 mg/kg/injection, schedule: Q04DX002 (ip), vehicle: gum acacia).
In the case of `O=C(N/N=C/c1ccc(Cl)c([N+](=O)[O-])c1)C(O)(c1ccccc1)c1ccccc1`, the T/C reads like this: under setting [1], 103 % of control; under setting [3], 95 % of control; under setting [6], 101 % of control.
As to `COc1cc2ccc(CCNCc3ccccc3)cc2cc1OC`, the T/C is, setting by setting: (dose: 25.0 mg/kg/injection, schedule: Q01DX009 (ip), vehicle: saline) 97 % of control; (dose: 50.0 mg/kg/injection, schedule: Q01DX009 (ip), vehicle: saline) 91 % of control; (dose: 100.0 mg/kg/injection, schedule: Q01DX009 (ip), vehicle: saline) 90 % of control; under setting [7], 87 % of control.
Consider `CNC(=O)NC1CCCCC1`, for which the T/C runs as follows: under setting [1], 106 % of control; (dose: 100.0 mg/kg/injection, schedule: Q01DX009 (ip), vehicle: carboxymethylcellulose (CMC)) 92 % of control and 98 % of control; (dose: 100.0 mg/kg/injection, schedule: Q04DX002 (ip), vehicle: carboxymethylcellulose (CMC)) 97 % of control; (dose: 100.0 mg/kg/injection, schedule: Q04DX003 (ip), vehicle: carboxymethylcellulose (CMC)) 100 % of control; under setting [3], 103 % of control; (dose: 200.0 mg/kg/injection, schedule: Q01DX009 (ip), vehicle: carboxymethylcellulose (CMC)) 95 % of control and 96 % of control. Also, the T/C is 89 % of control (dose: 200.0 mg/kg/injection, schedule: Q04DX002 (ip), vehicle: carboxymethylcellulose (CMC)); 97 % of control (dose: 200.0 mg/kg/injection, schedule: Q04DX003 (ip), vehicle: carboxymethylcellulose (CMC)); 106 % of control under setting [6]; 101 % of control (dose: 400.0 mg/kg/injection, schedule: Q01DX009 (ip), vehicle: carboxymethylcellulose (CMC)); 100 % of control (dose: 400.0 mg/kg/injection, schedule: Q04DX002 (ip), vehicle: carboxymethylcellulose (CMC)); 100 % of control (dose: 400.0 mg/kg/injection, schedule: Q04DX003 (ip), vehicle: carboxymethylcellulose (CMC)).
As for `CC(O)CN(CCN(CC(C)O)CC(C)O)CCN(CC(C)O)CC(C)O.O=S(=O)([O-])[O-].[Cu+2]` (stereo not drawn), the T/C was 102 % of control (dose: 5.0 mg/kg/injection, schedule: Q01DX001 (ip), vehicle: saline) and 91 % of control (dose: 10.0 mg/kg/injection, schedule: Q01DX001 (ip), vehicle: saline).
`O=C1CCCCC1Nc1ccc([N+](=O)[O-])cc1` (stereo not drawn): the T/C is 87 % of control under setting [2]; 93 % of control under setting [4]; 95 % of control (dose: 400.0 mg/kg/injection, schedule: Q01DX001 (ip), vehicle: saline).
Regarding `O=c1[nH]c(=S)nc2nc[nH]n12`, the T/C by setting is: under setting [7], 97 % of control; (dose: 200.0 mg/kg/injection, schedule: Q04DX003 (ip), vehicle: saline) 102 % of control; (dose: 400.0 mg/kg/injection, schedule: Q04DX003 (ip), vehicle: saline) 105 % of control.
For `CCOC(=O)NC1CCCCC1`, the T/C runs as follows: (dose: 100.0 mg/kg/injection, schedule: Q01DX001 (ip), vehicle: gum acacia) 97 % of control; (dose: 200.0 mg/kg/injection, schedule: Q01DX001 (ip), vehicle: gum acacia) 97 % of control; (dose: 400.0 mg/kg/injection, schedule: Q01DX001 (ip), vehicle: gum acacia) 105 % of control.

The values are drawn from PubChem BioAssay AID248 (DTP/NCI, 2004).
